Legend:
MIA PaCa-2 cells = assay: Trypan blue cell death, δ-tocotrienol, 5-FU or combination, 24 hours; type: cell-based, human; details: MIA PaCa-2, 50 μM each
Procedure: MIA PaCa-2 cells were treated vehicle or an anti-proliferative treatment comprising 50 μM δ-tocotrienol, 50 μM 5-FU, or 50 μM δ-tocotrienol and 50 μM 5-FU for 24 hours. Cells were harvested, fixed, permeablized and stained with trypan blue.

[1] = test system: oncogenic Ras signaling targets in tumors; assay: Immunohistochemical staining of extracted xenograft tumors; type: in vivo, mice
Procedure: FIGS. 50A and B are immunohistochemical stains of the effects of δ-tocotrienol on oncogenic Ras signaling targets. […] A. A comparison of H&E, Ki67, and p-MAPK staining of control versus delta-tocotrienol treated MIA PaCa2 cells. B. A comparison of p-AKT, p27^kip1, and TUNEL staining of control versus delta-tocotrienol treated cells.
Tumors were extracted on the last day of treatment and imbedded in paraffin. Immunohistochemical staining was performed to determine the effects of δ-tocotrienol on oncogenic Ras signaling targets. […] Furthermore, the biomarker proteins p-MAPK and p-AKT were decreased and p27^kip1 expression was increased in δ-tocotrienol treated tumors. […] This is associated with inhibition of AKT signaling targets. Moreover, overexpression of myr AKT in Pancreatic Cancer cells rescues the effect δ-Tocotrienol induces apoptosis in vitro and in vivo.

HPDE 6C7 cells [2] = assay: Proliferation by MTT, increasing concentrations of δ-tocotrienol; type: cell-based, human; details: HPDE 6C7, 24 hours, even at the highest concentrations
Procedure: (§1) MIA PaCa2, SW1990, BXPC3, and HPDE 6C7 cells (3×10^3) were cultured as described in the Examples above, in 96-well plates and treated the following day with increasing concentrations of δ-tocotrienol.

HPDE 6C7 cells [3] = assay: Cell cycle phase by propidium iodide flow cytometry; type: cell-based, human; details: HPDE 6C7, 20 μM, 24 hours
Procedure: (§2) MIA PaCa2, SW 1990, BXPC3 and HPDE 6C7 cells were treated with either 8-tocotrienol 20 μM or vehicle for 24 hours. Cells were harvested, washed twice in PBS, and fixed in ethanol overnight. Pellets were washed the following day in PBS, stained with propidium iodide, and analyzed by flow cytometry for cell cycle phase. […] Important regulators of the G1 cell cycle phase include members of the cyclin kinase inhibitor family. One of these members, p27^kip1, appears to be important in the progression of pancreatic cancer.

SW 1990 cells = assay: as above; type: cell-based, human; details: SW 1990, 20 μM, 24 hours
Procedure: as §2

BXPC3 cells = assay: as above; type: cell-based, human; details: BXPC3, 20 μM, 24 hours
Procedure: as §2

MIA PaCa2 cells [4] = assay: as above; type: cell-based, human; details: MIA PaCa2, 20 μM, 24 hours
Procedure: as §2

[5] = test system: p27^kip1 luciferase reporter; assay: p27^kip1 luciferase reporter assay; type: cell-based, human; details: Mia PaCa2, 20 μM, 24 hours
Procedure: The mechanism by which δ-tocotrienol upregulates p27^kip1 protein expression was investigated using a luciferase reporter assay. Mia PaCa2 cells transfected with a p27^kip1 luciferase reporter (Wang, et al. Activation of p27Kip1 Expression by E2F1. A negative feedback mechanism. J Biol. Chem. 2005 Apr. 1; 280(13):12339-43. Epub 2005 Feb. 14) were treated with either δ-tocotrienol (20 μM) or vehicle for 24 hours and luciferase activity was then measured using a luminometer.

BxPc-3 cells = assay: Annexin V-FITC staining, flow cytometry for apoptosis; type: cell-based, human; details: BxPc-3, varying concentrations, 24 hours
Procedure: FIG. 4 is a graph wherein BXPC3 pancreatic cancer cells were treated with in varying concentrations of δ-tocotrienol or vehicle for 24 hours. Cells were collected and stained with Annexin V-FITC and analyzed by flow cytometry for apoptosis.
MiaPaCa2 and HPDE 6C7 cells were cultured, as discussed above, and treated with δ-tocotrienol or vehicle. […] MiaPaCa-2, BxPc-3, and SW1990 pancreatic cancer cells were treated with in varying concentrations of δ-tocotrienol or vehicle for 24 hours. The cells were then harvested for annexin V-FITC staining and analyzed by flow cytometry.

SW1990 cells = assay: Proliferation by MTT, increasing concentrations of δ-tocotrienol; type: cell-based, human; details: SW1990, at 24 hours; read-out: IC50 (inhibition of proliferation, MTT)
Procedure: FIG. 23 is a graph wherein SW1990 pancreatic cancer cells (3×10^3) were plated in 96 well plates and treated the following day with δ-tocotrienol. Proliferation was assessed by MTT at 24 hour intervals. […] HPDE 6C7 cells were also treated with increasing concentrations of 8-tocotrienol for 24 hours.
as §1

MIA PaCa2 cells [6] = assay: TUNEL staining; type: cell-based, human; details: MIA PaCa2, 20 μM, 24 hours, vs vehicle or treated HPDE 6C7
Procedure: In addition to its chemopreventive effects, δ-Tocotrienol induces apoptosis in pancreatic cancer. MIA PaCa2 cells were treated with either δ-tocotrienol or vehicle for 24 hours. Cells were collected and stained with annexin V-FITC and analyzed by flow cytometry for apoptosis. […] MIA PaCa2 cells and HPDE 6C7 cells were treated with vehicle or δ-tocotrienol (20 μM) for 24 hours, then harvested and stained for TUNEL. […] Cell lysates were prepared from MIA PaCa2 cells treated with 8-tocotrienol (20 μM) at progressive time intervals and proteins from lysates were run by SDS PAGE and immunoblotted for biomarkers of apoptosis.

[7] = tumors from treated mice vs control group

SMILES: CC(C)=CCC/C(C)=C/CC/C(C)=C/CC[C@]1(C)CCc2cc(O)cc(C)c2O1 [T3 delta, delta tocotrienol]
- cell death (Trypan Blue) (MIA PaCa-2 cells): significantly more than 5-FU alone
- p27^kip1 expression ([1]; treated tumors): increased
- p-AKT ([1]; treated tumors): decreased
- p-MAPK ([1]; treated tumors): decreased
- Ki67 staining (proliferation) [1, 7]: decrease in Ki67
- TUNEL staining (apoptosis) [1, 7]: induction of apoptosis
- antiproliferative effect (HPDE 6C7 cells [2]): relatively resistant
- cell cycle phase (HPDE 6C7 cells [3]): no effect on cell cycle phase
- cell cycle phase (SW 1990 cells): significant G1 cell cycle arrest
- cell cycle phase (BXPC3 cells): significant G1 cell cycle arrest
- cell cycle phase (MIA PaCa2 cells [4]): significant G1 cell cycle arrest
- luciferase activity (p27^kip1 reporter) [5]: increase in luciferase activity
- induction of apoptosis (annexin V-FITC) (BxPc-3 cells): dose dependent induction of apoptosis
- IC50 (SW1990 cells): 20 to 25 µM
- TUNEL staining (MIA PaCa2 cells [6]): significant staining for TUNEL

— patent publication US8846653B2, “Delta-tocotrienol treatment and prevention of pancreatic cancer” (University of South Florida, priority 2006, dated 2014)
